US20260183350A1, “ANTIBIOTIC-RESISTANT BACTERIA” (priority 2022, published 2026)

How the values were obtained:
faecal microbiota [1] = assay: Faecal batch culture with antibiotics promoting CRE colonisation: 16S rRNA gene sequencing and qPCR; format: cell-based, human; details: 11 healthy donors, antibiotic at faecal concentration, 24 hours anaerobic
Description: (§1) The inventors performed faecal culture experiments to measure the effects of eight broad-spectrum antibiotics on the faecal microbiota collected from 11 healthy human donors. Faecal culture experiments were performed under anaerobic conditions using a complex gut growth medium that was designed to mimic the nutrients found in the human distal gut (McDonald, J. A. et al. Evaluation of microbial community reproducibility, stability and composition in a human distal gut chemostat model. J. Microbiol. Methods 95, 167-174 (2013)). […] Moon, Y. S., Chung, K. C. & Gill, M. A. Pharmacokinetics of meropenem in animals, healthy volunteers, and patients. Clin Infect Dis 24, S249-S255 (1997). Kager, L., Brismar, B., Malmborg, A. S. & Nord, C. E. Imipenem concentrations in colorectal surgery and impact on the colonic microflora. Antimicrob Agents Chemother 33, 204-8 (1989). Pletz, M. et al. Ertapenem pharmacokinetics and impact on intestinal microflora, in comparison to those of ceftriaxone, after multiple dosing in male and female volunteers. Antimicrob Agents Chemother 48, 3765-72 (2004). Nord, C. E., Brismar, B., Kasholm-Tengve, B. & Tunevall, G. Effect of piperacillin/tazobactam treatment on human bowel microflora. J Antimicrob Chemother 31, 61-5 (1993). […] Antimicrob Agents Chemother 63, 2244 (2019). Pessôa de Menezes e Silva, C H. Elaboration and evaluation of a new screening medium for detection and presumptive identification of extended-spectrum beta-lactamase-producing organisms (ESBL). Braz J Microbiol 31, 271-274 (2000). Brismar, B., Edlund, C., Malmborg, A. S. & Nord, C. […] Antimicrob Agents Chemother 34, 481-3 (1990)). Cultures were incubated anaerobically at 37° C. for 24 hours. Samples were analysed by ^1H-NMR spectroscopy (for nutrient and metabolite profiling) and […] rRNA gene sequencing with 16S rRNA gene qPCR (for bacterial composition and biomass) (McDonald, J. A. K. et a/. Inhibiting Growth of Clostridioides difficile by Restoring Valerate, Produced by the Intestinal Microbiota. Gastroenterology 155, 1495-1507 (2018)).

faecal microbiota [2] = assay: Faecal batch culture with antibiotics promoting CRE colonisation: 1H-NMR of nutrients and metabolites; format: cell-based, human; details: 11 healthy donors, antibiotic at faecal concentration, 24 hours anaerobic
Description: as §1
Supernatants were prepared from faeces by vortexing 300 mg of faeces in 900 μl of HPLC-grade water for 10 minutes at 3000 rpm followed by centrifugation at 17,000×g for 10 minutes at 4° C. Supernatants were prepared from faecal culture samples by centrifugation at 17,000×g for 10 minutes at 4° C. Supernatants were frozen at −80° C. until they were ready for analysis.
^1H-NMR spectroscopy was performed as previously described (McDonald, J. A. K. et al. Inhibiting Growth of Clostridioides difficile by Restoring Valerate, Produced by the Intestinal Microbiota. Gastroenterology 155, 1495-1507 (2018)). Briefly, sample supernatants were randomized and defrosted at room temperature for 1 hour. Sample supernatants were then centrifuged for 10 min at 17 000×g and 4° C. The pellet was discarded and 400 μl of supernatant was added to 250 μl NMR buffer (28.85 g Na2HPO4, 5.25 g NaH2PO4, 1 mM TSP, 3 mM NaN3, deuterium oxide to 1 L, pH 7.4). 600 μl of sample was used to fill each 5 mm NMR tube to be loaded into the SampleJet system.
^1H-NMR spectroscopy was performed using the Bruker AVANCE III HD 800 MHz spectrometer (Bruker Bio-Spin, Rheinstetten, Germany). 1D spectra (a standard NOESYGPPR1D pulse sequence (RD-90°-t1-90°-tm-90°-ACQ)) as well as 2D spectra (standard 2D JRESGPPRQF pulse sequence) were acquired. A recycle delay of 4 seconds and mixing time of 100 ms was used. The 90° pulse length was approximately 10 μs and 32 scans were recorded.
NMR spectra were imported into MATLAB r2019b (The Mathworks, USA) using an in-house script. Spectra were aligned and the water (4.6-5 ppm) and TSP (−0.2-0.2 ppm) peaks were cut. Compounds were identified by comparison to spectral databases in Chenomx NMR Suite (Chenomx, Canada). Representative peaks were integrated for quantification of compounds.

piperacillin/tazobactam [TZP]
Change in abundance of bacterial families relative to antibiotic-naive faecal cultures (faecal microbiota [1]): decreased the abundance of Bifidobacteriaceae and Bacteroidaceae | Change in butyrate concentration in faecal cultures (faecal microbiota [2]): decreased

CC(C)(O/N=C(\C(=O)N[C@@H]1C(=O)N2C(C(=O)[O-])=C(C[n+]3ccccc3)CS[C@H]12)c1csc(N)n1)C(=O)O [CAZ, ceftazidime]
Change in abundance of bacterial families relative to antibiotic-naive faecal cultures (faecal microbiota [1]): decreased the abundance of Bifidobacteriaceae | Change in butyrate concentration in faecal cultures (faecal microbiota [2]): increased

CO/N=C(\C(=O)N[C@@H]1C(=O)N2C(C(=O)O)=C(CSc3nc(=O)c(=O)[nH]n3C)CS[C@H]12)c1csc(N)n1 [CRO, ceftriaxone]
Change in abundance of bacterial families relative to antibiotic-naive faecal cultures (faecal microbiota [1]): decreased the abundance of Bifidobacteriaceae | Change in butyrate concentration in faecal cultures (faecal microbiota [2]): decreased

CO/N=C(\C(=O)N[C@@H]1C(=O)N2C(C(=O)O)=C(COC(C)=O)CS[C@H]12)c1csc(N)n1 [CTX, cefotaxime]
Change in abundance of bacterial families relative to antibiotic-naive faecal cultures (faecal microbiota [1]): decreased the abundance of Bifidobacteriaceae | Change in butyrate concentration in faecal cultures (faecal microbiota [2]): increased
